Source: patent US5614408A, “Monoclonal antibodies to potato, tomato, and eggplant glycoalkaloids and assays for the same” (priority 1995, dated 1997)
“Also recorded” adds a separate entry of the source.

Experiments:
Format in all cases: binding, mouse
[1] = system: monoclonal antibody Sol-55; test: competitive inhibition ELISA (c-ELISA), monoclonal antibody Sol-55; details: Sol-55 (IgG2a); ± one standard deviation
Method: (§1) Five, 6 month old BALB/c mice were injected with 50 μl of the solanidine-KLH conjugate mixed 1:1 with Ribi adjuvant (Ribi Immunochem Research Inc., Hamilton, Mont.). The mice received half the dose intraperitoneally and half intramuscularly every other week for a total of three injections. One month later, and 4 days prior to fusion, a selected mouse was given an intraperitoneal injection of 50 μl of solanidine-KLHconjugate in sterile saline. The spleen was removed and the splenocytes fused with SP2/O myeloma cells as described by Stanker et al. (1986, J. Immunol., 136:4174-4180), the contents of which are incorporated by reference herein. The fused cells were plated over 30 96-well microculture plates previously coated with mouse peritoneal exudate cells (macrophage) and grown under conditions described by Elissalde et al. (1993, J. Agric. Food Chem., 41:2167-2171), the contents of which are also incorporated by reference herein.
(§2) db-ELISA. A modification of a direct-binding ELISA described by Stanker et al. (1993, J. Agric. Food Chem., 41:1332-1336), the contents of which are incorporated by reference herein, was used to screen the culture fluids from the growing hybridomas for antibodies to solanidine. Microtiter plates (Nunc Maxisorb, Roskilde, Denmark; or Costar high binding plates, Costar Corp., Wilmington, Mass.) were coated with SOL-BSA by addition of 100 μl/well of a 1 μg/ml solution of SOL-BSA in distilled water. The SOL-BSA was incubated in uncovered plates at 37° C. for 18 hr to evaporate the liquid and allow the SOL-BSA to coat the bottom of the microtiter wells. The "coated" plates were then stored in sealed plastic bags at 4° C. and used within 2 weeks. Nonreacted sites on the plates were blocked by adding 400 μl of a 3% solution of nonfat dry milk (NFDM) in assay buffer (0.1M Tris, 0.15M NaCl, 10 mg/ml nonfat dry milk, 0.001% Tween 20, 0.02% sodium azide) and incubating the plates at room temperature for 1 hr. The blocking solution was then discarded and 100 μl of the hybridoma supernatant(s) or anti-solanidine Mab (from ascites fluid) was added, and the plates incubated for 1 hr at 37° C. After incubation, the plates were washed with a solution of 0.05% TWEEN-20 in water, and peroxidase conjugated goat anti-mouse antiserum (Sigma Inc., St. Louis, Mo.), diluted 1:500 in assay buffer, was then added to each well. Following a second 1 hr incubation at 37° C., the plates were washed as described above. Finally, the substrate, 2,2'-azino-bis(ethylbenzthiazole-6-sulfonic acid) (ABTS), was added. Absorbance was measured at 405 nm and the resulting data analyzed by computer using an Excel (Microsoft, Redmond, Wash.) spreadsheet program.
(§3) c-ELISA. The competitive inhibition ELISA for solanidine and other glycoalkaloids was carried out as previously described for other compounds by Stanker et al. (1993, ibid). Briefly, to each well of an antigen (glycoalkaloid or aglycone) coated, non-fat-milk-blocked, microtiter plate prepared as described in the db-ELISA was added 100 μl of assay buffer. Competitors (free solanidine and other glycoalkaloids and aglycones, and four structurally related steroids cholesterol, digitonin, βsitosterol, and stigmasterol, shown in Table 1) dissolved in 100 μl of assay buffer were added to the microassay plate and serially diluted (a 2-fold series). Next, 100 μl of assay buffer containing a predetermined amount of anti-solanidine monoclonal antibody prepared above was added to each well. The amount of anti-alkaloid antibody added was the concentration (dilution from tissue culture supernatant) resulting in approximately 50% of maximum binding or signal in a direct-binding ELISA where no competitor was present. The plates were sealed with plastic wrap, incubated for 1 hr at 37° C., and then processed as described in the db-ELISA to detect bound antibody. […]

[2] = system: monoclonal antibody Sol-71; test: competitive inhibition ELISA (c-ELISA), monoclonal antibody Sol-71; details: Sol-71 (IgG2a); ± one standard deviation
Method: as §1, §2, §3

[3] = system: monoclonal antibody Sol-8; test: competitive inhibition ELISA (c-ELISA), monoclonal antibody Sol-8; details: Sol-8 (IgG2a); ± one standard deviation
Method: as §1, §2, §3

[4] = system: monoclonal antibody Sol-59; test: competitive inhibition ELISA (c-ELISA), monoclonal antibody Sol-59; details: Sol-59 (IgG2a); ± one standard deviation
Method: as §1, §2, §3

[5] = system: monoclonal antibody Sol-54; test: competitive inhibition ELISA (c-ELISA), monoclonal antibody Sol-54; details: Sol-54 (IgG2a); ± one standard deviation
Method: as §1, §2, §3

[6] = system: monoclonal antibody Sol-91; test: competitive inhibition ELISA (c-ELISA), monoclonal antibody Sol-91; details: Sol-91 (IgG2a); ± one standard deviation
Method: as §1, §2, §3

[7] = system: monoclonal antibody Sol-129; test: competitive inhibition ELISA (c-ELISA), monoclonal antibody Sol-129; details: for IC50: Sol-129 (IgG1), ± one standard deviation; for relative affinity of Sol-129 / binding by Sol-129: in words
Method: as §1, §2, §3

[8] = system: eleven monoclonal antibodies; test: competitive inhibition ELISA (c-ELISA), all eleven monoclonal antibodies; details: in words
Method: as §1, §2
c-ELISA. […]

[9] = system: monoclonal antibody Sol-67; test: competitive inhibition ELISA (c-ELISA), monoclonal antibody Sol-67; details: Sol-67 (IgG1); ± one standard deviation
Method: as §1, §2, §3

[10] = system: monoclonal antibody Sol-68; test: competitive inhibition ELISA (c-ELISA), monoclonal antibody Sol-68; details: Sol-68 (IgG1); ± one standard deviation
Method: as §1, §2, §3

[11] = system: monoclonal antibody Sol-106; test: competitive inhibition ELISA (c-ELISA), monoclonal antibody Sol-106; details: Sol-106 (IgG2a); ± one standard deviation
Method: as §1, §2, §3

[12] = system: monoclonal antibody Sol-48; test: competitive inhibition ELISA (c-ELISA), monoclonal antibody Sol-48; details: Sol-48 (IgG2a); ± one standard deviation
Method: as §1, §2, §3

| SMILES | IC50 [1] | IC50 [2] | IC50 [3] | IC50 [4] | IC50 [5] | IC50 [6] | IC50 [7] | cross-reaction of the antibodies [8] | IC50 [9] | IC50 [10] | IC50 [11] | IC50 [12] | relative affinity of Sol-129 [7] | binding by Sol-129 [7] |
| --- | --- | --- | --- | --- | --- | --- | --- | --- | --- | --- | --- | --- | --- | --- |
| CC(C)CCC[C@@H](C)[C@H]1CC[C@H]2[C@@H]3CC=C4C[C@@H](O)CC[C@]4(C)[C@H]3CC[C@]12C [cholesterol] | nc (no competition at 10,000 ppb) | nc (no competition at 10,000 ppb) | nc (no competition at 10,000 ppb) | nc (no competition at 10,000 ppb) | nc (no competition at 10,000 ppb) | nc (no competition at 10,000 ppb) | nc (no competition at 10,000 ppb) | None of the eleven antibodies cross-reacted | nc (no competition at 10,000 ppb) | nc (no competition at 10,000 ppb) | nc (no competition at 10,000 ppb) | – | – | – |
| C[C@H]1CC[C@@H]2[C@@H](C)[C@H]3[C@H](C[C@H]4[C@@H]5CC=C6C[C@@H](O)CC[C@]6(C)[C@H]5CC[C@]34C)N2C1 [solanidine] | 60 ± 19 ppb | 1020 ppb | 46 ± 6.4 ppb | 16 ± 1.7 ppb | 131 ± 53 ppb | 36 ± 5.7 ppb | 2.5 ± 0.35 ppb | – | 15.6 ppb | 489 ppb | 14 ppb | 18 ± 4.4 ppb | high affinity; also recorded: lowest relative affinity | – |
| C[C@@H]1CC[C@@]2(NC1)O[C@H]1C[C@H]3[C@@H]4CC=C5C[C@@H](O)CC[C@]5(C)[C@H]4CC[C@]3(C)[C@H]1[C@@H]2C [solasodine] | – | – | – | – | – | – | – | – | – | – | – | – | – | binds |
| C[C@@H]1CC[C@@]2(NC1)O[C@H]1C[C@H]3[C@@H]4CC=C5C[C@@H](O[C@@H]6O[C@H](CO)[C@H](O)[C@H](O[C@@H]7O[C@H](CO)[C@@H](O)[C@H](O)[C@H]7O)[C@H]6O[C@@H]6O[C@@H](C)[C@H](O)[C@@H](O)[C@H]6O)CC[C@]5(C)[C@H]4CC[C@]3(C)[C@H]1[C@@H]2C [solasonine] | nc (no competition at 10,000 ppb) | nc (no competition at 10,000 ppb) | nc (no competition at 10,000 ppb) | nc (no competition at 10,000 ppb) | nc (no competition at 10,000 ppb) | nc (no competition at 10,000 ppb) | 36 ± 3.2 ppb | – | nc (no competition at 10,000 ppb) | nc (no competition at 10,000 ppb) | nc (no competition at 10,000 ppb) | nc (no competition at 10,000 ppb) | high affinity | Sol-129 was the only antibody capable of binding |
| C[C@H]1CC[C@]2(NC1)O[C@H]1C[C@H]3[C@@H]4CC[C@H]5C[C@@H](O)CC[C@]5(C)[C@H]4CC[C@]3(C)[C@H]1[C@@H]2C [tomatidine] | nc (no competition at 10,000 ppb) | nc (no competition at 10,000 ppb) | nc (no competition at 10,000 ppb) | nc (no competition at 10,000 ppb) | nc (no competition at 10,000 ppb) | nc (no competition at 10,000 ppb) | 10.4 ± 2.0 ppb | – | nc (no competition at 10,000 ppb) | nc (no competition at 10,000 ppb) | nc (no competition at 10,000 ppb) | nc (no competition at 10,000 ppb) | – | specifically bound; also recorded: Sol-129 was the only antibody capable of binding |
| C[C@H]1CC[C@@H]2[C@@H](C)[C@H]3[C@H](C[C@H]4[C@@H]5CC=C6C[C@@H](O[C@@H]7O[C@H](CO)[C@H](O[C@@H]8O[C@@H](C)[C@H](O)[C@@H](O)[C@H]8O)[C@H](O)[C@@H]7O[C@@H]7O[C@@H](C)[C@@H](O)[C@@H](O)[C@H]7O)CC[C@]6(C)[C@H]5CC[C@]34C)N2C1 [α-chaconine] | 204 ± 19 ppb | nc (no competition at 10,000 ppb) | 294 ± 34 ppb | 25 ± 2.1 ppb | 165 ± 58 ppb | 82 ± 5.2 ppb | 2.8 ± 0.2 ppb | – | 20.2 ppb | nc (no competition at 10,000 ppb) | 54 ± 13 ppb | 323 ± 125 ppb | high affinity | – |
| C[C@H]1CC[C@@H]2[C@@H](C)[C@H]3[C@H](C[C@H]4[C@@H]5CC=C6C[C@@H](O[C@@H]7O[C@H](CO)[C@H](O)[C@H](O[C@@H]8O[C@H](CO)[C@@H](O)[C@H](O)[C@H]8O)[C@H]7O[C@@H]7O[C@@H](C)[C@H](O)[C@@H](O)[C@H]7O)CC[C@]6(C)[C@H]5CC[C@]34C)N2C1 [α-solanine] | 118 ± 18 ppb | nc (no competition at 10,000 ppb) | 253 ± 64 ppb | 35 ± 8 ppb | 215 ± 32 ppb | 104 ± 18 ppb | 2.6 ± 0.25 ppb | – | 27.8 ppb | nc (no competition at 10,000 ppb) | 49 ± 8 ppb | 436 ± 135 ppb | high affinity | – |
| C[C@H]1CC[C@]2(NC1)O[C@H]1C[C@H]3[C@@H]4CC[C@H]5C[C@@H](O[C@@H]6O[C@H](CO)[C@H](O[C@@H]7O[C@H](CO)[C@@H](O)[C@H](O[C@@H]8OC[C@@H](O)[C@H](O)[C@H]8O)[C@H]7O[C@@H]7O[C@H](CO)[C@@H](O)[C@H](O)[C@H]7O)[C@H](O)[C@H]6O)CC[C@]5(C)[C@H]4CC[C@]3(C)[C@H]1[C@@H]2C [α-tomatine] | nc (no competition at 10,000 ppb) | nc (no competition at 10,000 ppb) | nc (no competition at 10,000 ppb) | nc (no competition at 10,000 ppb) | nc (no competition at 10,000 ppb) | nc (no competition at 10,000 ppb) | 5.4 ± 3.5 ppb | – | nc (no competition at 10,000 ppb) | nc (no competition at 10,000 ppb) | nc (no competition at 10,000 ppb) | nc (no competition at 10,000 ppb) | approximately the same affinity as the potato glycoalkaloids | specifically bound; also recorded: Sol-129 was the only antibody capable of binding |
